Laboratory results from patent US4761405A, “Antagonists of specific excitatory amino acid neurotransmitter receptors having increased potency” (priority 1987, dated 1988).
Several values for one entry are separate records, joined by “and”; a condition that tells them apart may be missing. Equal values may be shown once. Entries after “also recorded” stand apart in the source; their conditions may differ. Read-outs that look alike come from different tables or passages of the source.

Experiments:
[1] = test system: NMDA receptors (rat forebrain membranes); test: In vitro receptor binding: inhibition of specific [3H]CPP binding; settings: for Inhibition of [3H]CPP binding / interaction with NMDA-type receptors, in words: 50 μM; for Percent inhibition of specific ligand binding, [3H]CPP: 50 μM compound, 8 nM ligand, pH 7.4, 30 min, 23° C., mean ± S.E.M. of three determinations
Procedure: (§1) The potency of the compound described in example IV to inhibit the specific binding of various EAA ligands to rat forebrain membranes was examined using standard in vitro binding techniques. Specifically, example IV was evaluated for potency to inhibit the specific binding of [^3 H]kainic acid ([^3 H]KA),[^3 H]RS-α-amino-3-hydroxy-5-methyl-4-isoxazole propionic acid([^3 H]AMPA) and [^3 H]3-(2-carboxypiperazin-4-yl) propyl-1-phosphonic acid([^3 H]CPP) to KA, QUIS and NMDA receptors, respectively.
(§2) Methods were as follows: rat forebrain membranes were prepared as described by Enna and Synder [Mol. Pharmacology, 13, 422-453 (1977)] and the "buffy coat" preparation was washed three additional times by centrifugation (45,000 g; 10 min; 4° C.) with intermittent resuspensions (20 vol; w/v) in fresh buffer (Tris HCl; 0.05M; pH 7.4; 23° C.). Following the final wash, pellets were stored frozen (-20° C.) until used.
(§3) On the day of assay, pellets were thawed to room temperature, resuspended in buffer (Tris HCl; 0.05 M; various pH; 23° C.) and washed three additional times by centrifugation as described in the preceeding paragraph. For assay, the washed tissue was resuspended in buffer at a concentration of 10 mg/mL. All procedures were performed using triplicate incubations in a final volume of 2 mL which consisted of the tissue suspension (1 mL), ligand, the compound(s) of interest and 1 mL of buffer. In every instance, Glu (10^-3 M) was used to determine nonspecific binding. Assays were terminated by centrifugation (45,000 g; 10 min; 4° C.), the pellet was washed rapidly and superficially with 2×2.5 mL of ice-cold buffer and dissolved in 1 mL of Protosol® (New England Nuclear, Boston, Mass.). Following the addition of 6 mL of Econfluor® (New England Nuclear, Boston, Mass.) radioactivity was determined using conventional liquid scintillation spectrophotometry.
Specific binding of [^ 3H]CPP (S.A.=27 Ci/mmol, New England Nuclear, Boston, Mass.) was examined using a modification of the method of Murphy et al., [(J. Pharmacol. Exp. therap., (in press)] using Tris HCl buffer (pH 7.4). Incubations were conducted for 30 min at 23° C. using a final ligand concentration of 8 nM.
(§4) All assays were performed on three separate occassions. Appropriate reference compounds were evaluated in each assay and experiment using parallel incubations. All compounds were examined at a single concentration (50 uM) and activity was expressed as the percent inhibition of specific binding of each ligand.
(§5) Method(s) have been described in the text. Values shown are the means ±S.E.M. of three separate determinations performed using triplicate incubations and are expressed as the percent inhibition of specifically bound ligand. All drugs were tested at a single concentration of 50 μM.

[2] = test system: QUIS receptors (rat forebrain membranes); test: In vitro receptor binding: inhibition of specific [3H]AMPA binding; settings: for Inhibition of [3H]AMPA binding, in words: 50 μM; for Percent inhibition of specific ligand binding, [3H]AMPA: 50 μM compound, 4 nM ligand, pH 6.9, 100 mM KSCN, 60 min, 4° C., mean ± S.E.M. of three determinations
Procedure: as §1, §2, §3
Specific [^3 H]AMPA (S.A.=27.5 Ci/mmol, New England Nuclear, Boston, Mass.) binding was examined according to the method of Murphy et al., [(Soc. Neurosci. Abs., 11, 109, (1985)] using Tris HCl buffer (pH 6.9) supplemented with 100 mM KSCN. Incubations were conducted for 60 min at 4° C. using a final ligand concentration of 4 nM.
as §4, §5

[3] = test system: KA receptors (rat forebrain membranes); test: In vitro receptor binding: inhibition of specific [3H]KA binding; settings: for Percent inhibition of specific ligand binding, [3H]KA: 50 μM compound, 2 nM ligand, pH 7.4, 90 min, 2° C., mean ± S.E.M. of three determinations
Procedure: as §1, §2, §3
Specific binding of [^3 H]KA (S.A.=60 Ci/mmol, New England Nuclear, Boston, Mass.) was examined according to the method of London and Coyl [(Mol. Pharmacol., 15, 492-505 (1979)] using Tris HCl buffer (pH 7.4). Incubations were conducted for 90 min at 2° C. using a final ligand concentration of 2 nM.
as §4, §5

[4] = test system: pentylenetetrazol (PTZ)-induced seizures; test: Protection against pentylenetetrazol (PTZ)-induced seizures; type: in vivo, male CF-1 mice
Procedure: The anticonvulsant properties of example IV and of the reference compound DL(±)AP7 against seizures induced by subcutaneous (s.c.) injection of pentylenetetrazol (PTZ) were evaluated using mice.
For testing, PTZ was dissolved in saline (0.9%; w/v) and administered to male CF-1 mice (Charles Rivers: 20-25 g) at a dose of 90 mg/kg (s.c.) fifteen minutes (ICV) or thirty minutes (IP) after the administration of the test compounds. Example IV and the reference compound were dissolved in sline and administered in a final volume of 5 μL (ICV) or 200 μL (IP). […] Presence of seizures was defined as one or more episodes of clonic activity having a duration of five seconds or greater. Following preliminary dose-ranging studies, dose-response curves were generated using at least five different doses of each compound with eight animals at each dose. The dose of drug required to protect fifty percent (ED50) of the test animals from PTZ-induced seizures was calculated using log-logit analysis. Ninety-five percent confidence intervals (CL95) were calculated using the method of Litchfield and Wilcoxon [J. Pharmacol. Exp. Therap., 96, 99-113 (1949)].
(§6) Method(s) have been described in the text. Where ED50 's are shown,
(§7) *Where ninetyfive percent confidence limits are not shown, the values

[5] = test system: maximal electroshock (MES)-induced seizures; test: Protection against maximal electroshock (MES)-induced seizures; type: in vivo, male CF-1 mice; settings: for ED50: Mus musculus, 0.5 h, ip, 30 min prior; for ED50 / ED50, maximal electroshock, icv: 50 mA, 0.2 s; for ED50, maximal electroshock, icv: 15 min prior
Procedure: The anticonvulsant properties of example IV and of the reference compound DL(±)AP7 against seizures induced by maximal electroshock (MES) were evaluated using mice.
For testing, electrodes were clipped to the ears of male CF-1 mice (20-25 g; Charles Rivers) and a current of 50 mA was delivered for 0.2 seconds to produce seizures. Drugs were dissolved in saline (0.9%; w/v) and administered fifteen minutes (ICV) or thirty minutes (IP) prior to testing. Injection protocols and group size were identicl to those described in example VI. […] Seizures were scored as being present or absent. Data was calculated as described in example VI.
as §6, §7

[6] = test system: cultured rat hippocampal neurones; settings: cited from earlier work
[7] = icv, 15 min before PTZ 90 mg/kg s.c.
[8] = ">" = maximum dose tested, no animals protected, read-out: ED50, maximal electroshock, ip (mg/kg)
[9] = ">" = maximum dose tested, no animals protected, read-out: ED50, maximal electroshock, ip (mmol/kg)
[10] = ">" = maximum dose tested, no animals protected
[11] = Mus musculus, ip, 30 min before PTZ 90 mg/kg s.c.; ">" = maximum dose tested, no animals protected

Compound	Inhibition of [3H]CPP binding / interaction with NMDA-type receptors, in words [1]	Percent inhibition of specific ligand binding, [3H]CPP [1]	Inhibition of [3H]AMPA binding, in words [2]	Percent inhibition of specific ligand binding, [3H]AMPA [2]	Percent inhibition of specific ligand binding, [3H]KA [3]	ED50, pentylenetetrazol, icv (nmoles) [4, 7]	ED50, pentylenetetrazol, icv (ug) [4, 7]	ED50, maximal electroshock, icv [5, 10]	further results
Cc1onc(O)c1CC(N)C(=O)O (racemic) [AMPA, RS-α-amino-3-hydroxy-5-methyl-4-isoxazole propionic acid]	without appreciable activity	7 ± 4%	most potent inhibitors of binding	100 ± 0%	64 ± 4%	–	–	–	–
NC(CCCCCP(=O)(O)O)C(=O)O (racemic) [DL(±)AP7]	–	–	–	–	–	6.8 nmol	1.37 µg	6.8 µg and 7.3 µg	ED50 ([4]; Mus musculus; ip, 30 min before PTZ 90 mg/kg s.c.): 780 to 880 µmol/kg; ED50 ([4]; Mus musculus; ip, 30 min before PTZ 90 mg/kg s.c.; ">" = maximum dose tested, no animals protected): 176 to 199 mg/kg; Attenuation of MES-induced seizure activity, in words ([5]; ICV): dose-dependent protection; ED50 [5, 8]: 127 to 170 mg/kg; ED50 [5, 9]: 0.56 to 0.76 mmol/kg; ED50, maximal electroshock, icv [5]: 29 nmol and 34 nmol
NC(CCC1CCCCC1CP(=O)(O)O)C(=O)O (stereo not shown) [4-(2-phosphonomethyl)cyclohexyl-2-aminobutyric acid]	high affinity and selectivity	–	–	–	–	–	–	–	Anticonvulsant activity in PTZ seizure model, in words ([4]; mice): provide protection in pentylenetetrazol (PTZ) induced seizures
N[C@H](CCCP(=O)(O)O)C(=O)O [D(-)AP5, D(-)-2-amino-5-phosphonopentanoic acid]	–	95 ± 4%	–	3 ± 2%	22 ± 1%	–	–	–	–
N[C@H](CCCCCP(=O)(O)O)C(=O)O [D(-)AP7, D(-)-2-amino-7-phosphonoheptanoic acid]	–	100 ± 0%	–	7 ± 5%	17 ± 2%	–	–	–	–
NC(CC1CCCCC1CCP(=O)(O)O)C(=O)O (stereo not shown) [Example IV, 2-amino-4.5-(1,2-cyclohexyl)-7-phosphonoheptanoic acid]	interacts, albeit with moderate affinity, in a highly specific manner with NMDA-type receptors	33 ± 9%	without appreciable activity	1 ± 1%	9 ± 4%	0.14 nmol and 0.19 nmol	0.04 µg and 0.06 µg	90 µg	Inhibition of [3H]CPP binding / interaction with NMDA-type receptors, in words ([1]; listed as 3-(2-phosphonoethyl)cyclohexyl-2-aminopropionic acid): high affinity and selectivity; Inhibition of [3H]KA binding, in words ([3]; 50 μM): least active; fold more potent than DL(±)AP7 to prevent PTZ-induced seizures, ICV ([4]; ICV, vs DL(±)AP7): 30-40 fold; fold more potent than DL(±)AP7 to prevent PTZ-induced seizures, IP ([4]; IP, vs DL(±)AP7): approximately 2 fold; ED50 ([4]; Mus musculus, ip, 30 min before PTZ 90 mg/kg s.c.): 310 µmol/kg; ED50 [4, 11]: 90 mg/kg; ED50, pentylenetetrazol, ip ([4]; ip, 30 min before PTZ 90 mg/kg s.c.): 0.47 mmol/kg; ED50, pentylenetetrazol, ip ([4]; ip, 30 min before PTZ 90 mg/kg s.c.; ">" = maximum dose tested, no animals protected): 134 mg/kg; Anticonvulsant activity in PTZ seizure model, in words ([4]; mice): potent, novel and systemically active anticonvulsant agent; Anticonvulsant activity in PTZ seizure model, in words ([4]; mice; listed as 3-(2-phosphonoethyl)cyclohexyl-2-aminopropionic acid): provide protection in pentylenetetrazol (PTZ) induced seizures; Attenuation of MES-induced seizure activity, in words ([5]; ICV): moderately potent; also recorded: relative lack of potency; fold less potent as an anticonvulsant in MES compared to its activity in the PTZ seizure model ([5]; ICV, MES vs PTZ): 360 fold; fold less potent than DL(±)AP7 as an anticonvulsant in the MES test ([5]; ICV, vs DL(±)AP7): approximately 11 fold; Prevention of MES-induced seizures on systemic administration ([5]; IP, up to 350 mg/kg, n=6): failed to prevent MES-induced seizures in any animal; ED50 [5, 8]: > 350 mg/kg; ED50 [5, 9]: > 1.2 mmol/kg; ED50, maximal electroshock, icv [5]: 314 nmol
NC(Cc1ccccc1CCP(=O)(O)O)C(=O)O (stereo not shown) [III, 2-Amino-4,5-benzo-7-phosphonoheptanoic acid]	–	–	–	–	–	44 nmol	3.2 µg	> 100 µg	ED50 [4, 11]: > 350 mg/kg
C=C(C)[C@H]1CN[C@H](C(=O)O)[C@H]1CC(=O)O [KA, kainic acid]	without appreciable activity	3 ± 2%	moderate activity	56 ± 5%	100 ± 0%	–	–	–	–
δ-D-glutamyl glycine	–	–	–	–	–	–	–	–	Effect on toxicity of exogenously applied Glu and Asp ([6]; exogenously applied Glu and Asp): blocking the toxicity of exogenously applied Glu and Asp; Protection of neurones from degeneration ([6]; oxygen depletion): protect cultured rat hippocampal neurones from degeneration
